Results reported in patent US20090221665A1, “Organic Compounds” (priority 2005, published 2009).

Tested on: male rats
Assay: Fecal pellet output in male rats after i.p. dosing
Type: in vivo, rat
Conditions: for fecal pellet output (in words): dosed alone, every 30 mins for 2 hr
Experimental: Methods: In male rats (200-300 g) fecal pellet output was measured every 30 mins for 2 hr following administration of tegaserod (0.01-1.0 mg/kg i.p.), neostigmine (0.01-0.1 mg/kg i.p.) or a combination of both compounds.

Row | SMILES | # Fecal Pellets (Neo 0.01 mg/kg i.p. alone, 30 min) | # Fecal Pellets (Neo 0.01 mg/kg i.p. alone, 60 min) | # Fecal Pellets (Neo 0.01 mg/kg i.p. alone, 90 min) | # Fecal Pellets (Neo 0.01 mg/kg i.p. alone, 120 min) | fecal pellet output (in words) (neostigmine 0.01-0.1 mg/kg i.p.) | # Fecal Pellets (Teg 0.01 mg/kg i.p. alone, 30 min) | # Fecal Pellets (Teg 0.01 mg/kg i.p. alone, 60 min) | # Fecal Pellets (Teg 0.01 mg/kg i.p. alone, 90 min) | # Fecal Pellets (Teg 0.01 mg/kg i.p. alone, 120 min) | # Fecal Pellets (Teg 0.1 mg/kg i.p. alone, 30 min) | # Fecal Pellets (Teg 0.1 mg/kg i.p. alone, 60 min) | # Fecal Pellets (Teg 0.1 mg/kg i.p. alone, 90 min) | # Fecal Pellets (Teg 0.1 mg/kg i.p. alone, 120 min) | fecal pellet output (in words) (tegaserod 0.01-1.0 mg/kg i.p.)
1 | CN(C)C(=O)Oc1cccc([N+](C)(C)C)c1 [Neo, neostigmine] | 0.67 ± 0.33 | 1.00 ± 0.58 | 1.00 ± 0.58 | 1.33 ± 0.67 | dose and time-dependent increase in fecal pellet output |  |  |  |  |  |  |  |  | 
2 | CCCCCNC(=N)N/N=C/c1c[nH]c2ccc(OC)cc12 [Teg, 3-(5-methoxy-1H-indol-3-yl-methylene)-N-pentylcarbazimidamide] |  |  |  |  |  | 0.17 ± 0.17 | 0.17 ± 0.17 | 0.33 ± 0.21 | 1.50 ± 0.62 | 0.83 ± 0.32 | 1.25 ± 0.35 | 1.50 ± 0.34 | 1.83 ± 0.39 | dose and time-dependent increase in fecal pellet output
